Data set [1] concerns the target T1, TNKS1 (Homo sapiens, UniProt O95271).
T1 sequence (O95271 1-1327): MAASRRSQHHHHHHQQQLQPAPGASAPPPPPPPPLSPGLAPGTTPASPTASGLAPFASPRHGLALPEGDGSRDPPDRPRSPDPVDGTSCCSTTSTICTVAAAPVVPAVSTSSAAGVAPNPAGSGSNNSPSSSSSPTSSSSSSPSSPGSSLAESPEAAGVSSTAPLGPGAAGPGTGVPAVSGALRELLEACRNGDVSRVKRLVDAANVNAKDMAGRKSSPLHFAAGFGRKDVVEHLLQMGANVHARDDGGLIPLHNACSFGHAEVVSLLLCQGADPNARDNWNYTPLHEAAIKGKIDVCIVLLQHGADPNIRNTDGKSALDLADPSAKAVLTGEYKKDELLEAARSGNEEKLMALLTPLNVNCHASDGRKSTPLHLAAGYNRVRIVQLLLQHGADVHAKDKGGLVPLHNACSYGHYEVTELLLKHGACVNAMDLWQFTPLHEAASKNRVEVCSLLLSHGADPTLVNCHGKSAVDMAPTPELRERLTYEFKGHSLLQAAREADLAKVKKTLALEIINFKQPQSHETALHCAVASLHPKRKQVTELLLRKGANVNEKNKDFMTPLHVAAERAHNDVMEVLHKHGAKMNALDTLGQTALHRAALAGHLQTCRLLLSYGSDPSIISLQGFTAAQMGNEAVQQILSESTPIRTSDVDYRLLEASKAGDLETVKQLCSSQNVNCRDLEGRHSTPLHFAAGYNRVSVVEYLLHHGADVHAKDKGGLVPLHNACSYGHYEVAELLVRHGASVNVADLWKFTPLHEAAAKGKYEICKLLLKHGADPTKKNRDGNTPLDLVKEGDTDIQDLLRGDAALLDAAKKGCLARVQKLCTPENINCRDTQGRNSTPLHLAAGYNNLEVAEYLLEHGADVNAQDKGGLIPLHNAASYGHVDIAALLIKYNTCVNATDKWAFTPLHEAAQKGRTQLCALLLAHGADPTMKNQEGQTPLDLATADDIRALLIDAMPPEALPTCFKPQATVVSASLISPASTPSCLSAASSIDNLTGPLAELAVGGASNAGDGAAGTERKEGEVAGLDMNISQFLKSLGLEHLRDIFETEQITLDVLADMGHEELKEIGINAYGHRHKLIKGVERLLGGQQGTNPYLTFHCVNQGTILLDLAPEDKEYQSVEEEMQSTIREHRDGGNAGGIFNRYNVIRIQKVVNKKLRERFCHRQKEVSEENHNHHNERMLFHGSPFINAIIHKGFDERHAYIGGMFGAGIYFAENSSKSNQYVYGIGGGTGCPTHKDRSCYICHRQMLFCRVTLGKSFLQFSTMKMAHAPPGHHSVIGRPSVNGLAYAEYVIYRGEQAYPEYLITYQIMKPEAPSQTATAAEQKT
Put plainly: PARP profiling activity assay, TNKS1. Format: biochemical.
Procedure: Inhibition experiments were performed using a homogenous assay measuring NAD+ consumption.[80]−[82] Reactions were carried out in quadruplicate, and IC50 curves were fitted using sigmoidal dose response curve (four variables) in GraphPad Prism version 8.02.

In data set [2] the test system is HeLa Flp-In T-REx-PARP10 cells. The data set is described as follows: PARP10 rescue assay (colony formation, Dox-induced PARP10 overexpression). Format: cell-based, human. The conditions noted are these: for EC50: Homo sapiens, HeLa, read-out: PARP10 rescue EC50; for Rescue of cells from PARP10-induced cell death: at 1 μM, colony formation. As for the experimental part: HeLa Flp-In T-REx-PARP10 and -PARP10-G888W cells were grown in DMEM medium supplemented with 10% heat-inactivated fetal calf serum at 37 °C in 5% CO2.[92] For colony formation assays, 500 HeLa cells were seeded in 6-well culture plates. Once the cells adhered, protein expression was induced by adding 500 ng/mL Dox. […] The number of colonies was assessed using ImageJ. EC50 curves were fitted using three variables in GraphPad Prism version 8.02.

Data set [3] is described as follows: PAMPA, gastrointestinal tract (GI) permeability. Particulars: phosphatidylcholine; for Papp at 5 h, 500 μM: pH 7.4, 5 h. Format: in vitro ADME. The protocol:
Each “donor solution” was prepared from a solution of the appropriate compound (DMSO, 1 mM) diluted with phosphate buffer (pH 7.4, 0.025 M) up to a final concentration of 500 μM. […] Donor solution (150 μL) was added to each well of the filter plate and to each well of the acceptor plate was added 300 μL of solution (50% DMSO in phosphate buffer). The sandwich plate was assembled and incubated for 5 h at r.t. After the incubation time, the plates were separated, and the samples were taken from both the donor and acceptor wells, and the amount of compound was measured by UV/LC–MS. All compounds were tested in three independent experiments. […] Drug concentration is estimated by using the peak area integration. Membrane retentions (%) were calculated according to the following equation [drawing 2] where r is the ratio between drug concentration in the acceptor and equilibrium concentration and D, A, and Eq represent drug concentration in the donor, acceptor, and equilibrium solution, respectively.

In the case of `Cc1ccc2c(c1)sc1nnc(N)n12` [Compound 21, 7-Methyl[1,2,4]triazolo[3,4-b][1,3]benzothiazol-3-amine], the IC50 in data set [1] worked out at 2100 nM. In data set [2], the EC50 turned out to be 500 nM and the “Rescue of cells from PARP10-induced cell death” value is reported as “efficiently rescued cells from PARP10-induced cell death”. In data set [3], the “GI RM % (retention membrane percentage)” value is recorded as 1.8% and the Papp at 5 h, 500 μM is 0.281 ×10⁻⁶ cm/s.
Take `COc1ccc(OC)c2c1sc1nnc(N)n12` [Compound 27, 5,8-Dimethoxy[1,2,4]triazolo[3,4-b][1,3]benzothiazol-3-amine]: in data set [1], the IC50 amounted to 5400 nM. For the same compound, in data set [2], the half-maximal effective concentration (EC50) was 150 nM and the “Rescue of cells from PARP10-induced cell death” value is recorded as “efficiently rescued cells from PARP10-induced cell death”. For the same compound, in data set [3], the “GI RM % (retention membrane percentage)” value came to 1.3% and the Papp at 5 h, 500 μM is 0.144 ×10⁻⁶ cm/s.

Source of the values: publication PMC9884089 (Journal of Medicinal Chemistry, 2023).
